The values below come from patent publication US8680288B2, “Pyridin-2yl sulfanyl acid esters and process for the preparation thereof” (Council of Scientific & Industrial Research, priority 2010, dated 2014).

“Also recorded” adds a separate entry of the source. Read-outs that look alike come from different tables or passages of the source.

The subject of series [1] is adhesion of neutrophils onto human umbilical vein endothelial cells (HUVECs). Description: Neutrophil adhesion assay on LPS-induced endothelial cells (static conditions). The format is cell-based. Particulars: LPS (1 μg/ml) 6 hrs; for IC50: HUVEC, read-out: Neutrophil Adhesion Inhibition IC50. On the procedure: (§1) Primary endothelial cells were isolated from human umbilical cord using mild trypsinization (Kumar, S., Arya, P., Mukherjee, C., Singh, B. K., Singh, N., Parmar, V. S., Prasad, A. K., Ghosh, B. Novel Aromatic Ester from Piper longum and Its Analogues Inhibit Expression of Cell Adhesion Molecules on Endothelial Cells. Biochemistry. 2005, 44, 15944-15952). The cells were grown in M199 medium (Sigma, USA) supplemented with 15% heat inactivated fetal calf serum (Biological Industries, Israel), 2 mM L-glutamine (Sigma, USA), 100 units/ml penicillin (Sigma, USA), 100 μg/ml streptomycin (Sigma, USA), 0.25 μg/ml amphotericin B (Sigma, USA), endothelial cell growth factor (50 μg/ml) (Sigma, USA). At confluence, the cells were subcultured using 0.05% trypsin-0.01 M EDTA solution and were used between passages three to four.
Neutrophils were isolated from peripheral blood of healthy individuals (Kumar S et al, 2005). Blood was collected in heparin solution (20 U/ml) and erythrocytes were removed by sedimentation against 6% dextran solution. Plasma, rich in white blood cells, was layered over Ficoll-Hypaque solution (Sigma, USA), followed by centrifugation (300 g for 20 min, 20° C.). The top saline layer and the Ficoll-Hypaque layer were aspirated leaving neutrophils/RBC pellet. The residual red blood cells were removed by hypotonic lysis. Isolated cells were washed with PBS and resuspended in PBS containing 5 mM glucose, 1 mM CaCl2, and 1 mM MgCl2 at a final concentration of 6×10^5 cells/ml.
Neutrophil adhesion assay was performed under static conditions as described previously (Kumar S et al, 2005). Briefly, endothelial cells plated in 96-well culture plates were incubated with or without RS—Z at desired concentrations for 2 hrs, followed by induction with LPS (1 μg/ml) for 6 hrs. Endothelial monolayers were washed with PBS and neutrophils (6×10^4/well) were added over it and were allowed to adhere for 1 hr at 37° C. The non-adherent neutrophils were washed with PBS and neutrophils bound to endothelial cells were assayed by adding a substrate solution consisting of o-phenylenediamine dihydrochloride (40 mg/100 ml in citrate phosphate buffer, pH 4.5), 0.1% cetrimethyl ammonium bromide, and 3-amino-1,2,4 triazole (1 mM). The absorbance was read at 490 nm using an automated microplate reader (Model 680, Bio-Rad, USA).

For series [2], the system named is ICAM-1 (Intercellular cell adhesion molecule-1). Kind of series: Cell-ELISA for measurement of LPS-induced ICAM-1 expression on endothelial cells. The format is cell-based. Particulars: LPS (1 μg/ml) 16 hrs, human endothelial cells, read-out: ICAM-1 inhibition IC50. On the procedure:
as §1
Cell-ELISA was used for measuring the expression of ICAM-1 on surface of endothelial cells (Kumar S et al, 2005) Endothelial cells were incubated with or without the test compounds at desired concentrations for the required period, followed by treatment with LPS (1 μg/ml) (BD, USA) for 16 hrs for ICAM-1 expression. The cells were fixed with 1.0% glutaraldehyde (Sigma, USA). Non-specific binding of antibody was blocked by using skimmed milk (3.0% in PBS). Cells were incubated overnight at 4° C. with anti-ICAM-1 mAb (BD, USA), diluted in blocking buffer, the cells were further washed with PBS and incubated with peroxidase-conjugated goat anti-mouse secondary antibody (Sigma, USA). After washings, cells were exposed to the peroxidase substrate (o-phenylenediamine dihydrochloride 40 mg/100 ml in citrate phosphate buffer, pH 4.5). Reaction was stopped by the addition of 2 N sulfuric acid and absorbance at 490 nm was measured using microplate reader (Spectramax 190, Molecular Devices, USA).
On the technique in general: An ELISA detects its analyte on a solid surface through an enzyme-linked reagent.

In series [3] the test system is human umbilical vein endothelial cell (HUVEC). Kind of series: Cell viability (MTT) assay on endothelial cells. The format is cell-based. The settings on record: Concentration of compounds where >95% cells are viable. On the procedure: as §1
The cytotoxicity of these compounds was analyzed by colorimetric MTT (methylthiazolydiphenyl-tetrazolium bromide, Sigma, USA) assay as described (Kumar S et al, 2005). Briefly, endothelial cells were treated with DMSO alone (0.25%, as vehicle) or with different concentrations of compounds for 24 hrs. Four hrs before the end of incubation, medium was removed and 100 μl MTT (5 mg/ml in serum free medium) was added to each well. The MTT was removed after 4 hrs, cells were washed out with PBS (phosphate buffered saline, pH 7.4), and 100 μl DMSO was added to each well to dissolve water insoluble MTT-formazan crystals. Absorbance was recorded at 570 nm in an ELISA reader (Bio-Rad, Model 680, USA). All experiments were performed at least 3 times in triplicate wells.

The next series concerns acute lung Injury model. The settings on record: literature reference; cited from earlier work.
Series [4] relates to LPS induced acute lung injury. Kind of series: LPS aerosol induced acute lung injury model in mice (BALF cell counts, lung injury score). Format: in vivo. The settings on record: for Neutrophil count in the BALF / neutrophil influx in the lungs / Lung injury score / LPS-induced lung injury: post-treatment i.p. 0.1, 1.0 and 10 mg/kg; for Neutrophil count in the BALF / neutrophil influx in the lungs: FIG. 2B; for Lung injury score / LPS-induced lung injury: FIG. 3. As to the method:
BALB/c male mice 10 weeks old were randomly divided into 5 groups with 6 mice in each group.
Group 1: saline challenged/vehicle (0.25% CMC) treated
Group 2: LPS challenged/vehicle treated
Group 3: LPS challenged/RS—Z (0.1 mg/kg in 0.25% CMC) treated
Group 4: LPS challenged/RS—Z (1 mg/kg in 0.25% CMC) treated
Group 5: LPS challenged/RS—Z (10 mg/kg in 0.25% CMC) treated
Mice in Groups 2, 3, 4 and 5 were challenged with an aerosol of LPS (E. coli strain 026:B6) at a concentration of 300 μg/ml in normal saline for 30 minutes. Mice were placed in a Plexiglas chamber (20×20×10 cm^3) and exposed to an aerosol generated from a nebulizer (Omtron model, USA) with an airflow rate of 9 L/min. Group 1(Control) mice were challenged with saline alone.
Mice were treated with either vehicle or RS—Z thirty minutes after the LPS challenge. Mice in group 1 (control) and Group 2 (LPS challenged) were vehicle (0.25% CMC) treated intraperitoneally (i.p.). Mice in Group 3 were treated with RS—Z at a dose of 0.1 mg/kg body weight by i.p. injection. Mice in Group 4 were treated with RS—Z at a dose of 1.0 mg/kg body weight by i.p. injection. Group 5 were treated with RS—Z at a dose of 10 mg/kg body weight by i.p. injection.
Mice were sacrificed three hrs after the LPS challenge using an overdose of sodium pentothal (100 mg/kg, i.p.). The trachea were cannulated and 0.5 ml of PBS (phosphate buffered saline) was used for lavage at a time and this step was repeated three times. About 1.5 ml of BAL fluid was recovered per mouse. The BAL fluid was centrifuged (400×g, 4° C., 6 min) and the supernatant was kept at −70° C. until analyzed for biochemical parameters. The BAL cells were washed three times with PBS and the pellet was resuspended in 200 μl cold PBS. For total cell counts, BAL cell suspension was diluted 1:20 in PBS and cells were counted in a hemocytometer. For differential counts, BALF cell suspension smear was made on glass slides followed by Leishman's stain. The cells were identified and counted by standard methodology. At least 300 cell (all types) per slide were counted and the percentage of neutrophils was calculated.
The excised lung portions from all the groups was fixed in 10% Buffered formalin. The fixed tissue was embedded in paraffin, sectioned into 4 μm and stained with haematoxylin-eosin for observation under the light microscope. The injury was scored with a semi-quantitative grading system based on the structure changes edema, alveolar and interstitial hemorrhage and inflammatory cells sequestration (Matthay M A, Zimmerman G A, Esmon C, Bhattacharya J, Caller B, et al. (2003) Future research directions in acute lung injury: Summary of a National Heart, Lung, and Blood Institute working group. Am J Respir Crit. Care Med 167: 1027-1035). Semi-quantitative grading system was a 0-to-4 point grading system: 0=No injury, 1=25% injury in a light microscope field, 2=50% injury in a light microscope field, 3=75% injury in a light microscope field, 4= almost 100% injury in a light microscope field. Five light microscopic fields were analyzed for a particular pathological specimen to determine mice lung injury score.

The mark [5] stands for this setting: reference compound, value in mM.
Setting [6] is: vs. LPS aerosol/vehicle IP, listed as formula 1a.

Regarding `CCCOC(=O)CCCC(Sc1ccccn1)C(=O)OC` (stereo not drawn) [AD-20, 2-(2-pyridylthio)-hexanedioic acid 1-methyl ester 6-propyl ester], the “Neutrophil Adhesion Inhibition IC50” value in series [1] is “not significant”. In series [2], the IC50 (as a rule, the concentration that gives 50% inhibition) is 0.178 ± 0.00081 mM. Besides, the Max. tolerable dose in series [3] (24 hrs, MTT) stood at 0.25 mM.
The corresponding values for `COC(=O)C(CCCC(=O)OC1CCCCC1)Sc1ccccn1` (stereo not drawn) [AD-21, 2-(2-pyridylthio)-hexanedioic acid 6-cyclohexyl ester 1-methyl ester] are “not significant”, 0.117 ± 0.00092 mM and 0.25 mM.
On the same counts, the results for `CCOC(=O)CCCCCCCC(Sc1ccccn1)C(=O)OC` (stereo not drawn) [AD-32, 2-(2-pyridylthio)-decanedioic acid-10-ethyl ester 1-methyl ester] are “not significant”, 0.1 ± 0.00096 mM and 0.25 mM.
Regarding `CCCCCOC(=O)CCCC(Sc1ccccn1)C(=O)OC` (stereo not drawn) [AD—Z, 2-(2-pyridylthio)-hexanedioic acid-1-methyl ester 6-pentyl ester], the “Neutrophil Adhesion Inhibition IC50” value in series [1] is recorded as “not significant”. For the same molecule, the IC50 in series [2] came out at 0.085 ± 0.00152 mM. The Max. tolerable dose in series [3] (24 hrs, MTT) is 0.25 mM.
`CC(=O)N[C@@H](CS)C(=O)O` [NAC, N-acetyl cysteine, reference compound]: in the series with acute lung Injury model, the “Efficacious Dose” value is 150 mg/kg. The “Neutrophil Adhesion Inhibition IC50” value in series [1] is on record as “not significant”. Further, the IC50 in series [2] (setting [5]) was 6.68 mM. In addition, the Max. tolerable dose in series [3] (setting [5]) was 20 mM.
Regarding `CCCCOC(=O)CCSc1ccccn1` [RS-20, 3-(2-pyridylthio)propionic acid butyl ester], the figures for the IC50 in series [1] and in series [2] were 85 ± 0.94 µM and 0.079 ± 0.00073 mM, respectively. For the same molecule, the Max. tolerable dose in series [3] (24 hrs, MTT) came to 0.5 mM.
Turning to `O=C(CCSc1ccccn1)OC1CCCCC1` [RS-21, 3-(2-pyridylthio)propionic acid cyclohexyl ester], the “Neutrophil Adhesion Inhibition IC50” value in series [1] is given as “not significant”. Further, the IC50 in series [2] was determined as 0.135 ± 0.00082 mM. In series [3] (24 hrs, MTT), the Max. tolerable dose worked out at 0.25 mM.
As for `CCOC(=O)CCCCCCSc1ccccn1` [RS-32, 7-(2-pyridylthio)heptanoic acid ethyl ester], the IC50 came out at 94 ± 0.92 µM in series [1] and 0.097 ± 0.00063 mM in series [2]. The Max. tolerable dose in series [3] (24 hrs, MTT) is 0.5 mM.
On to `CCCCCOC(=O)CCSc1ccccn1` [RS—Z, 3-(2-pyridylthio)propionic acid pentyl ester], for which the IC50 worked out at 61 µM in series [1] and 0.05 mM in series [2]. Besides, in series [4] (10 mg/kg body weight), the “Lung injury caused by bacterial polysaccharide challenge” value is given as “significantly reduced”. Also, in series [4] (10 mg/kg body weight intraperitoneally), the Pulmonary neutrophil infiltration result is “significantly alleviate”. Also, in series [4] (acute lung injury model, mice, i.p.), the “Efficacious Dose” value is 10 mg/kg. Further, in series [4] (post-treatment IP 0.1, 1, 10 mg/kg, vs. LPS aerosol/vehicle IP, FIG. 2A), the “Total cell counts in the BALF” value is listed as “dose-dependently reduced”. Also, the “Neutrophil count in the BALF / neutrophil influx in the lungs” value was “reduction of the neutrophil influx; also recorded: dose-dependently reduced” in series [4] (vs. LPS aerosol/vehicle IP) and “Reduction of the neutrophil influx” in series [4] (setting [6]). For the same molecule, the “Lung injury score / LPS-induced lung injury” value in series [4] (vs. LPS aerosol/vehicle IP) was “attenuation of the LPS-induced lung injury; also recorded: dose-dependently reduced”; in series [4] (setting [6]), “Attenuation of the LPS-induced lung injury”. The molecule also had a Max. tolerable dose in series [3] (24 hrs, MTT) of 0.5 mM.
With `COc1ccc(C2CNC(=O)C2)cc1OC1CCCC1` (stereo not drawn) [Rolipram], the “Efficacious Dose” value in the series on acute lung Injury model is 5 mg/kg.
As for `O=C1CCC(N2C(=O)c3ccccc3C2=O)C(=O)N1` (stereo not drawn) [Thalidomide, α-N-phthalimidoglutarimide], the “Efficacious Dose” value in the series with acute lung Injury model is 100 mg/kg.
`Cc1c(C)c2c(c(C)c1O)CCC(C)(C[C@H]1O[C@H](CO)[C@@H](O)[C@H](O)[C@H]1O)O2` (stereo partly drawn) [Water-soluble Vitamin E derivative, (α-D-glucopyranosyl)methyl-2,5,7,8-(tetramethyl)chroman-6-ol]: the “Efficacious Dose” value with acute lung Injury model was 10 mg/kg.
